Measured values taken from PubChem BioAssay (NCI).
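Protocol summary: plate cells (96-well), add compound at 5 concentrations, incubate 48 h, interpolate endpoints linearly. TGI denotes the concentration required for complete inhibition of growth.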

How the values were obtained:
Test in all cases: growth of human tumour cells (NCI), 48 h
[1] = system: SF-539 CNS
[2] = system: MDA-N
[3] = system: DLD-1 colon
[4] = system: COLO 205 colon
[5] = system: NCI-H460 lung
[6] = system: SF-295 CNS
[7] = system: SW-620 colon
[8] = system: U251 CNS
[9] = system: UACC-257 melanoma
[10] = system: EKVX NSCLC
[11] = system: T-47D breast
[12] = system: BT-549 breast
[13] = system: RPMI-8226 leukemia
[14] = system: SK-OV-3 ovarian
[15] = system: UACC-62 melanoma
[16] = system: M14 melanoma
[17] = system: SNB-75 CNS
[18] = system: MOLT-4 leukemia
[19] = system: RXF-631 renal
[20] = system: KM12 colon
[21] = system: KM20L2 colon
[22] = system: SF-268 CNS
[23] = system: NCI-H226 lung
[24] = system: SK-MEL-2 melanoma
[25] = system: OVCAR-3 ovarian
[26] = system: IGROV1 ovarian
[27] = system: LOX IMVI melanoma
[28] = system: ACHN renal
[29] = system: OVCAR-5 ovarian
[30] = system: MALME-3M melanoma
[31] = system: HS 578T breast
[32] = system: CCRF-CEM leukemia
[33] = system: DMS 114 small cell lung
[34] = system: DU-145 prostate
[35] = system: M19-MEL melanoma
[36] = system: OVCAR-4 ovarian
[37] = system: DMS 273 small cell lung
[38] = system: UO-31 renal
[39] = system: SNB-19 CNS
[40] = system: HOP-92 NSCLC
[41] = system: HL-60(TB) leukemia
[42] = system: NCI-H522 lung
[43] = system: A498 renal
[44] = system: NCI/ADR-RES ovarian
[45] = system: HCC-2998 colon
[46] = system: TK-10 renal
[47] = system: HT29 colon
[48] = system: SR leukemia
[49] = system: PC-3 prostate
[50] = system: MDA-MB-231 breast
[51] = system: 786-0 renal
[52] = system: OVCAR-8 ovarian
[53] = system: MCF7 breast
[54] = system: MDA-MB-435
[55] = system: SK-MEL-5 melanoma
[56] = system: HOP-18 NSCLC
[57] = system: NCI-H23 lung
[58] = system: SK-MEL-28 melanoma
[59] = system: HCT-116 colon
[60] = system: RXF 393 renal
[61] = system: HOP-62 NSCLC
[62] = system: K-562 leukemia
[63] = system: HCT-15 colon
[64] = system: SN12C renal
[65] = system: LXFL 529 NSCLC
[66] = system: A549 NSCLC
[67] = system: SNB-78 CNS

In the case of `O=C1C=CC(=O)c2cc(Sc3ccccc3)c(=O)ccc21`, the TGI [1] is reported as 37 µM, the TGI [2] is reported as 33.4 µM and the TGI [3] is reported as 39 µM. The TGI [4] was 24.9 µM, the TGI [5] was 47.6 µM and the TGI [6] was 27.6 µM. It also gave a TGI [7] of 11.7 µM, a TGI [8] of 38.5 µM and a TGI [9] of 33.6 µM. The TGI [10] was 33.2 µM, the TGI [11] was 12.5 µM and the TGI [12] was 40 µM. For the same compound, the TGI [13] was 14.9 µM, the TGI [14] was 54.9 µM and the TGI [15] was 30.4 µM. For the same compound, the TGI [16] was 41.3 µM, the TGI [17] was 31.2 µM and the TGI [18] was 16 µM. The TGI [19] was 43.4 µM, the TGI [20] was 34.4 µM and the TGI [21] was 38 µM. For the same compound, the TGI [22] was 44.4 µM, the TGI [23] was 42.9 µM and the TGI [24] was 28.7 µM. For the same compound, the TGI [25] was 43.2 µM, the TGI [26] was 35 µM and the TGI [27] was 27.7 µM. For the same compound, the TGI [28] was 23.3 µM, the TGI [29] was 36.3 µM and the TGI [30] was 36.4 µM. For the same compound, the TGI [31] was 64.8 µM, the TGI [32] was 9.43 µM and the TGI [33] was 38.5 µM. The TGI [34] was 31.5 µM, the TGI [35] was 35.3 µM and the TGI [36] was 23.2 µM. The TGI [37] was 35.1 µM, the TGI [38] was 30.5 µM and the TGI [39] was 38.1 µM. It also gave a TGI [40] of over 52.7 µM, a TGI [41] of 1.79 µM and a TGI [42] of 5.96 µM. For the same compound, the TGI [43] was 31.4 µM, the TGI [44] was 42.1 µM and the TGI [45] was 35.3 µM. It also gave a TGI [46] of 32.2 µM, a TGI [47] of 41.6 µM and a TGI [48] of 5.96 µM. For the same compound, the TGI [49] was 33.2 µM, the TGI [50] was 35.4 µM and the TGI [51] was 31.9 µM. For the same compound, the TGI [52] was 33.9 µM, the TGI [53] was 23.9 µM and the TGI [54] was 71 µM. For the same compound, the TGI [55] was 31.5 µM, the TGI [56] was 31.8 µM and the TGI [57] was 37 µM. It also gave a TGI [58] of 35.1 µM, a TGI [59] of 42.6 µM and a TGI [60] of 25 µM. For the same compound, the TGI [61] was 47.3 µM, the TGI [62] was 8.75 µM and the TGI [63] was 33.1 µM. For the same compound, the TGI [64] was 33.9 µM, the TGI [65] was 20.3 µM and the TGI [66] was 39.5 µM. The TGI [67] was 42.6 µM.
